≈ marks a conversion by molar mass, not a printed value. Where two headings read alike, the source gives them in different places.
How the values were obtained:
M. smegmatis = assay: Minimum inhibitory concentration, agar streak test on TGY agar (M. smegmatis); format: cell-based; details: Mycolicibacterium smegmatis, NRRLB612, NRRL B-612, 37° C., 24 and 48 hr., read-out: Antimicrobial agent MIC
Description: (§1) Minimum inhibitory concentrations for microorganisms. The F. equiseti NRRL 5537 antibiotic was diluted in ethanol. Streptomycin sulfate and isoniazid were diluted in water. Amounts up to 1 ml. were added to TGY agar to provide the desired double dilution test concentrations. Minimum inhibitory concentrations of the antimicrobial agents were determined by streaking a loopful of standardized suspensions of 24- to 48-hr. cultures of selected microorganisms onto the surface of 20 ml. of the modified TGY agar in a standard petri dish. Microorganisms were cultured on TGY agar slants and diluted with TGY broth to yield a transmittance of about 90% at 600 nm. in a Spectronic-20 spectrophotometer. All cultures grew on control plates containing 1 ml. ethanol per 100 ml. TGY agar. Bacteria were incubated at 37° C. and the fungi at room temperature.

gram-negative bacteria = assay: Minimum inhibitory concentration, agar streak test on TGY agar (other gram-negative bacteria); format: cell-based; details: Neisseria perflava; tested gram-negative bacteria other than N. perflava; read-out: no inhibition at levels up to
Description: as §1

physchem = format: physicochemical
Description: Melting points (uncorrected) were determined with a Fisher-Johns apparatus. Infrared spectra were obtained on a Beckman Model 1R-8 spectrophotometer from films deposited on KRS-5 plates (Wilks, Inc.) or from solutions in a 1-mm. sodium chloride cell. Mass spectra were obtained on a Nuclide high-resolution instrument Model 12-90G. Ultraviolet spectra were recorded from a Beckman DG-G with the absolute ethanol solutions of antibiotic at 25 μg./ml. Elemental analysis was carried out in a Perkin-Elmer CHN analyzer 240. Solubilities were measured by the procedure of Shriner et al. [The Systematic Identification of Organic Compounds. A Laboratory Manual, John Wiley and Sons., Inc., New York].

[1] = format: physicochemical; details: for degradation peak, share of the sample: short columns (2 ft.)
Description: Gas-liquid chromatography of F. equiseti NRRL 5537 preparations was carried out on a Bendix Model 2500 chromatograph equipped with on-column flame ionization detectors. Retention times of the antibiotic and its degradation product were determined on glass columns (2 ft. × 2 mm. and 6 ft. × 2 mm.) packed with SE-30 (3%) on Supelcon AW-DMCS (Supelco, Inc.). Operating parameters were: temperature, 180° or 190° C. isothermally for 2-ft. columns and programmed from 180° to 220° C. at 5° C./min. for 6-ft. columns; carrier gas, nitrogen (40 ml./min.); hydrogen (20 ml./min.); air (400 ml./min.); injection ports and detectors, 250° C. Samples were dissolved in absolute ethanol (10 mg./ml.), and 2 μl. were used for analyses. Peak areas and retention times were obtained with a Hewlett/Packard Model 3370 B integrator.

Staphylococcus aureus = assay: Minimum inhibitory concentration, agar streak test on TGY agar (S. aureus); format: cell-based
Description: as §1

fungi = assay: Minimum inhibitory concentration, agar streak test on TGY agar (fungi); format: cell-based; details: tested fungi; room temperature; read-out: no inhibition at levels up to
Description: as §1

Neisseria perflava = assay: Minimum inhibitory concentration, agar streak test on TGY agar (N. perflava); format: cell-based; details: 37° C., 24 and 48 hr., read-out: Antimicrobial agent MIC
Description: as §1

Bacillus subtilis = assay: Minimum inhibitory concentration, agar streak test on TGY agar (B. subtilis); format: cell-based
Description: as §1

in vivo = assay: in vivo; design: species or system Swiss-Webster female mice; details: mouse, in vivo, ip; intraperitoneal, propylene glycol, 25 g. Swiss-Webster female mice; read-out: intraperitoneal LD50 dose
Description: (§2) Animal toxicity. Chromatographically pure antibiotic was dissolved in warm propylene glycol and injected intraperitoneally into 25 g. Swiss-Webster female mice. The LD50 dose was calculated by Weil's procedure (supra) with the following notation: K = 3; n = 6; r = 0, 1, 6, 6; d = 0.3010; and Da = 25 mg./kg. body weight.

mice = assay: in vivo; design: species or system Swiss-Webster female mice; details: for r (Weil's procedure notation): n = 6, Da = 25 mg./kg.
Description: as §2

[2] = tested on: some gram-positive bacteria and N. perflava; assay: Comparison of MIC of equisetin with streptomycin and isoniazid; format: cell-based; details: in vitro, tested bacteria
Description: as §1

M. rhodochrus = assay: Minimum inhibitory concentration, agar streak test on TGY agar (M. rhodochrus); format: cell-based; details: NRRL B-2141, 37° C., 24 and 48 hr., read-out: Antimicrobial agent MIC
Description: as §1

Mycobacterium phlei = assay: Minimum inhibitory concentration, agar streak test on TGY agar (M. phlei); format: cell-based; details: Mycolicibacterium phlei
Description: as §1

bacteria = details: cited from earlier work
[3] = seven strains, read-out: concentration at which strains were inhibited
[4] = 100 or 200 mg./kg. intraperitoneal

CC=CC1C=CC2CC(C)CCC2C1(C)C(O)=C1C(=O)C(CO)N(C)C1=O (centres unmarked) [equisetin]
MIC (M. smegmatis): 8 µg/mL (≈ 0.0214 mM) | MIC (gram-negative bacteria): > 128 µg/mL | solubility (physchem; acetone, organic solvent or mixture, read-out: solubility in acetone): > 660 mg/mL | solubility (physchem; ethanol, organic solvent or mixture, read-out: solubility in ethanol): > 330 mg/mL | solubility (physchem; methanol, organic solvent or mixture, read-out: solubility in methanol): > 220 mg/mL | solubility (physchem; organic solvent or mixture, hexane, insoluble, read-out: solubility in hexane): < 0.8 mg/mL | solubility (physchem; water, insoluble, read-out: solubility in water): < 0.3 mg/mL | antibiotic converted to the degradation product ([1]; 6-ft. columns, 220° C.): almost half | degradation peak, share of the sample ([1]; 180° C.): 3% | degradation peak, share of the sample ([1]; 190° C.): 6-8% | MIC (Staphylococcus aureus; NRRLB120, NRRL B-120, TGY agar, 37° C., 24 and 48 hr., read-out: Antimicrobial agent MIC): 1 µg/mL (≈ 0.00268 mM) | MIC (Staphylococcus aureus; NRRLB124, NRRL B-124, TGY agar, 37° C., 24 and 48 hr., read-out: Antimicrobial agent MIC): 1 µg/mL (≈ 0.00268 mM) | MIC (Staphylococcus aureus; NRRLB313, NRRL B-313, TGY agar, 37° C., 24 and 48 hr., read-out: Antimicrobial agent MIC): 0.5 µg/mL (≈ 0.00134 mM) | MIC (Staphylococcus aureus; NRRLB678, NRRL B-678, TGY agar, 37° C., 24 and 48 hr., read-out: Antimicrobial agent MIC): 1 µg/mL (≈ 0.00268 mM) | MIC (Staphylococcus aureus; NRRLB1317, NRRL B-1317, TGY agar, 37° C., 24 and 48 hr., read-out: Antimicrobial agent MIC): 1 µg/mL (≈ 0.00268 mM) | MIC (Staphylococcus aureus; NRRLB1318, NRRL B-1318, TGY agar, 37° C., 24 and 48 hr., read-out: Antimicrobial agent MIC): 1 µg/mL (≈ 0.00268 mM) | MIC (Staphylococcus aureus; NRRLB2746, NRRL B-2746, TGY agar, 37° C., 24 and 48 hr., read-out: Antimicrobial agent MIC): 1 µg/mL (≈ 0.00268 mM) | MIC (Staphylococcus aureus; [3]): ≤ 1 µg/mL | MIC (fungi): > 128 µg/mL | MIC (Neisseria perflava; NRRLB1458, NRRL B-1458, TGY agar): 2 µg/mL (≈ 0.00535 mM) | MIC (Neisseria perflava; NRRLB1788, NRRL B-1788, TGY agar): 2 µg/mL (≈ 0.00535 mM) | MIC (Neisseria perflava; NRRLB1789, NRRL B-1789, TGY agar): 4 µg/mL (≈ 0.0107 mM) | MIC (Neisseria perflava; NRRLB1790, NRRL B-1790, TGY agar): 1 µg/mL (≈ 0.00268 mM) | MIC (Neisseria perflava; NRRLB1791, NRRL B-1791, TGY agar): 4 µg/mL (≈ 0.0107 mM) | MIC (Bacillus subtilis; NRRLB543, NRRL B-543, TGY agar, 37° C., 24 and 48 hr., read-out: Antimicrobial agent MIC): 0.5 µg/mL (≈ 0.00134 mM) | MIC (Bacillus subtilis; NRRLB558, NRRL B-558, TGY agar, 37° C., 24 and 48 hr., read-out: Antimicrobial agent MIC): 0.5 µg/mL (≈ 0.00134 mM) | MIC (Bacillus subtilis; NRRLB644, NRRL B-644, TGY agar, 37° C., 24 and 48 hr., read-out: Antimicrobial agent MIC): 0.5 µg/mL (≈ 0.00134 mM) | MIC (Bacillus subtilis; NRRLB765, NRRL B-765, TGY agar, 37° C., 24 and 48 hr., read-out: Antimicrobial agent MIC): 0.5 µg/mL (≈ 0.00134 mM) | MIC (Bacillus subtilis; NRRLB972, NRRL B-972, TGY agar, 37° C., 24 and 48 hr., read-out: Antimicrobial agent MIC): 0.5 µg/mL (≈ 0.00134 mM) | MIC (Bacillus subtilis; NRRLB1650, NRRL B-1650, TGY agar, 37° C., 24 and 48 hr., read-out: Antimicrobial agent MIC): 1 µg/mL (≈ 0.00268 mM) | MIC (Bacillus subtilis; NRRLB3284, NRRL B-3284, TGY agar, 37° C., 24 and 48 hr., read-out: Antimicrobial agent MIC): 1 µg/mL (≈ 0.00268 mM) | MIC (Bacillus subtilis; [3]): ≤ 1 µg/mL | LD50 (in vivo): 63 mg/kg | visible ill effects in surviving mice (mice; 25- or 50-mg./kg. doses intraperitoneal, 4 wk. of observation): no visible ill effects | condition of mice (mice; [4]): lethargic | mortalities continued for, post-injection (mice; [4]): 4 da. | time of death (mice; [4]): death did not occur before the second day after treatment | r (Weil's procedure notation) (mice; first r, d = 0.3010 (25 mg./kg.)): 0 | r (Weil's procedure notation) (mice; fourth r, d = 0.3010 (200 mg./kg.)): 6 | lethal action (mice; intraperitoneal, mice): Lethal action was slow | r (Weil's procedure notation) (mice; second r, d = 0.3010 (50 mg./kg.)): 1 | r (Weil's procedure notation) (mice; third r, d = 0.3010 (100 mg./kg.)): 6 | comparison of minimum inhibitory concentrations with streptomycin and isoniazid [2]: a lower concentration of equisetin were required for the in vitro inhibition of the tested bacteria than was required for inhibition by streptomycin or isoniazid | MIC (M. rhodochrus): 0.5 µg/mL (≈ 0.00134 mM) | MIC (Mycobacterium phlei; NRRLB609, NRRL B-609, TGY agar, 37° C., 24 and 48 hr., read-out: Antimicrobial agent MIC): 1 µg/mL (≈ 0.00268 mM) | MIC (Mycobacterium phlei; NRRLB610, NRRL B-610, TGY agar, 37° C., 24 and 48 hr., read-out: Antimicrobial agent MIC): 1 µg/mL (≈ 0.00268 mM) | MIC (Mycobacterium phlei; NRRLB4051, NRRL B-4051, TGY agar, 37° C., 24 and 48 hr., read-out: Antimicrobial agent MIC): 2 µg/mL (≈ 0.00535 mM) | MIC (Mycobacterium phlei; two of three strains, read-out: concentration at which strains were inhibited): ≤ 1 µg/mL

O=C1C=CCO1 [butenolide]
antibacterial properties (bacteria): either lack or only exhibit weak antibacterial properties

C[C@H]1CCCC(=O)CCC/C=C/c2cc(O)cc(O)c2C(=O)O1 [zearalenone]
antibacterial properties (bacteria): either lack or only exhibit weak antibacterial properties

— patent US3959468A, “Antibiotic equisetin and method of production” (The United States of America as represented by the …, priority 1974, dated 1976)
